Reference: US20110136880A1, “Latrunculin-Based Macrolides and Their Uses” (priority 2009, published 2011)

How the values were obtained:
PC-3 = test: MTT proliferation assay, PC-3; type: cell-based, human; conditions: for IC50: Homo sapiens, PC-3, MTT, 72 h, read-out: IC50 (μM) PC-3
Text: The antiproliferative and anti-invasive activities of compounds 1-14 were quantified using MTT and cell invasion assay kits, respectively. Latrunculin A (compound 1) was used as a positive control in all biological assays, because it is known to be an actin polymerization inhibitor, with cytotoxic, antiproliferative, and anti-invasive activities. The 3-[4,5-dimethylthiazol-2-yl]-2,5-diphenyl tetrazolium bromide (MTT) assay selectively detects living cells in a quantitative, colorimetric fashion, based on a living cell's ability to reduce MTT to an insoluble, purple formazan dye. The MTT assay is routinely used to assess cytotoxicity and proliferation inhibition activities. The antiproliferative activities of compounds 1-14 were measured against two human mammary gland adenocarcinoma cell lines, MCF7 and MDA-MB-231, and against human prostate cancer cells PC-3 at five different doses (0.1, 0.5, 1, 10, and 50 μM). While many of the semisynthetic latrunculins had similar activity levels, some had greater activity than compound 1. […] Although the MDA-MB-231 cells were more resistant than MCF7 against most latrunculin derivatives tested, compound 14 had potent activity against both cell lines.
MTT Proliferation Assay. The growth of MCF7, MDA-MB-231, and PC-3 cancer cell lines was measured using an MTT kit (TACS™, TREVIGEN®, Inc.). Exponentially growing cells were plated in a 96-well plate at a density of 8×10^3 cells per well, and allowed to attach for 24 h. Complete growth medium was then replaced with 100 μL of RPMI serum-free medium containing various concentrations (50, 10, 1, 0.5, 0.1 μM) of the particular test compound. Culture continued at 37° C. under 5% CO2. After 72 h of culture, the cells were treated with MTT solution (10 μL/well) at 37° C. for 4 h. The color reaction was stopped by adding solubilization/stop solution (100 μL/well). Incubation continued at 37° C. continued to completely dissolve the formazan dye product. Absorbance of the samples was determined at 570 nm with an ELISA plate reader (BioTek, VT). The number of cells per well was calculated against a standard curve that had been prepared by plating various concentrations of cells, as determined by hemocytometer, at the start of each experiment. IC50 for each compound was calculated using a nonlinear regression curve fit of log concentration versus the number of cells/well, using GraphPad Prism 5.0 (GraphPad Software, La Jolla, Calif.).

[1] = tested on: prostate cancer cell line PC-3; test: Invasion assay, PC-3; type: cell-based, human; conditions: without cytotoxicity
MDA-MB-231 = test: Wound-healing assay; type: cell-based, human; conditions: 100 nM dose
Method: Wound-healing assay. MDA-MB-231 cells are plated onto sterile 24-well plates and allowed to form a confluent cell monolayer (>95% confluence) overnight. Wounds are then inflicted on each cell monolayer using a sterile 200 μL pipette tip. Media are removed, and cells are washed twice with PBS and once with fresh serum-free media. Test latrunculin compounds at various concentrations (100 nM-10 μM) in fresh, serum-free media are added to each well and incubated for 24 h under serum-starved conditions. Media are then removed, and the cells are washed, fixed and stained using Diff-Quick™ staining (Dade Behring Diagnostics, Aguada, Puerto Rico). Cells that have migrated across the inflicted wound are counted under the microscope in three or more randomly selected fields (magnification: 400×). All experiments are conducted independently in triplicate replications.

β-catenin in C2C12 cells = test: Wnt/β-catenin signaling, β-catenin levels in C2C12 cells; type: cell-based
Text: (§1) Effects on Wnt/β-catenin. […] These two compounds affected both alkaline phosphatase and β-catenin levels in C2C12 cells.

MDA-MB-231 cells = test: Cultrex BME cell invasion assay; type: cell-based, human; conditions: for fold more active against cell invasion than latrunculin A (compound 1): 0.5 μM
Method: The anti-invasive activities of compounds 1-14 were measured using a 96 well basement membrane extract (BME) cell invasion assay kit against the highly metastatic MDA-MB-231 cells. This assay employs a simplified Boyden Chamber with a polyethylene terephthalate membrane (8 μm pore size). Cell invasion was quantified using calcein-acetomethylester (calcein-AM). Cells internalize calcein-AM; intracellular esterases then cleave the acetomethylester moiety to generate free calcein. Free calcein fluoresces brightly. This fluorescence may be used to quantify the number of cells that have invaded across the BME. To correlate the anti-invasive activities of the latrunculin A derivatives with their actin-disrupting activities, compounds 1-14 were each tested at non-toxic concentrations. […] Accordingly, all compounds were tested at 0.1, 0.5, and 1.0 μM. Compound 3 killed 17% of MDA-MB-231 cells at 1.0 μM, while the same dose of compound 3 inhibited 95% of MDA-MB-231 cells' invasion. […] The anti-invasive activities of compounds 1-14 are attributed primarily to the inhibition of actin polymerization, not to cell death per se.
Cultrex® Cell Invasion Assay. Anti-invasive activities were measured using Trevigen's Cultrex® Cell Invasion Assay as described in K. Tamilarasan et al., BMC Cell Biol. 2006, 7, 17-30; and P. Borghesani et al., Development. 2002, 6, 1435-1442. About 50 μL of basement membrane extract (BME) coat was added to each well. After incubation for 4 h at 37° C. under 5% CO2, 50,000 MDA-MB-231 cells in 50 μL of serum free RPMI medium were added to each well in the top chamber, along with the test compound at one of several concentrations (0.1, 0.5, 1 μM). About 150 μL of RPMI medium was added to the lower chamber in 10% FBS and penicillin/streptomycin, using fibronectin ([…]) and N-formyl-met-leu-phe (10 nM) as chemoattractants. Cells were allowed to migrate to the lower chamber at 37° C. under 5% CO2. After 24 h, the top and bottom chambers were aspirated and washed with the washing buffer that had been supplied with the kit. About 100 μL of Cell Dissociation Solution/Calcein-AM solution was added to the bottom chamber, and the cells were incubated at 37° C. under CO2 for 1 h. Briefly, the cells internalize calcein-AM, and then the intracellular esterases cleave the AM moiety to generate free calcein. […] The number of cells that had invaded through the BME coat was calculated using a standard curve.

HeLa cells = test: HeLa cell G2/M assays; type: cell-based
Text: This assay measures HeLa cell proliferation, apoptosis, DNA content and condensation, cyclin B, and phosphor-histone H3.

[2] = tested on: alkaline phosphatase in C2C12 cells; test: Alkaline phosphatase in C2C12 cells (Wnt pathway); type: cell-based; conditions: Mus musculus
Text: as §1

[3] = tested on: breast, CNS, colon, lung, melanoma, ovarian, and renal cancer cells; test: Antiproliferative testing against 60 cell lines (NSC compounds); type: cell-based

Row | Structure (SMILES) | IC50 (PC-3) | anti-invasive activity against PC-3 [1] | anti-migratory activity (MDA-MB-231) | Wnt/β-catenin signaling (β-catenin in C2C12 cells) | IC50 (β-catenin in C2C12 cells; Mus musculus) | fold more active against cell invasion than latrunculin A (compound 1) (MDA-MB-231 cells) | times greater inhibition against G2-M-phase HeLa cells compared to nocodazole (HeLa cells; various G2_M assays) | IC50 [2] | fold increase in activity against PC-3 versus compound 1 (PC-3; relative to compound 1) | factor of greater activity than compound 1, MDA-MB-231 invasion assay (MDA-MB-231 cells; assessed at 1 μM) | number of the 60 cell lines tested with antiproliferative activity ([3]; dose of 10 μM) | log10GI50 ([3]; five-points dose-response, range over active cell lines) | dose range of strong growth inhibition of HeLa cells at early interphase (HeLa cells; flow cytometry) | activity in G2_M assays compared with nocodazole (HeLa cells; less active than compound 11)
1 | COc1ccc(CC(=O)N2C(=O)SC[C@H]2[C@@]2(OC)C[C@H]3C[C@@H](CC[C@H](C)/C=C\C=C\CC/C(C)=C\C(=O)O3)O2)cc1 [Compound 11, 17-O-Methyl-N-(7′-methoxyphenylacetyl)latrunculin A] | 19.8 µM | potent anti-invasive activity | potent anti-migratory | strongly inhibited | 7 nM | 4.6 fold | 3.5-51.0 times | 4 nM |  |  |  |  |  | 
2 | C/C1=C/C(=O)O[C@@H]2C[C@@H](CC[C@H](C)/C=C\C=C\CC1)O[C@@](O)([C@@H]1CSC(=O)N1CO)C2 [Compound 14, N-Hydroxymethyllatrunculin A] | 0.36 µM |  |  |  |  | 2.1 fold |  |  | 10.8 fold | 2.7 | 18 | −7.13 to −7.83 | 0.04 to 1.25 µM | greater activity than did nocodazole
